Experimental findings from a melting point compilation (Tetko et al.; mined from patent text by program, amines drawn as free bases though some values may be those of a salt) are described below.

As usually defined, the melting point is the temperature of the solid-liquid transition. For the compound `CC(C)(C)c1csc(COc2cccc(C(=O)Nc3cc(CCCS(=O)(=O)c4ccc(Cl)cc4)ccc3OCC(N)=O)c2)n1`, the melting point was 147 to 148 °C.
To `COC(=O)c1cnc(OC)c(N)c1` belongs 108 to 109 °C; to `CCOC(=O)CN(SN(C)C(=O)Oc1cccc2c1OC(C)(C)C2)C(=O)CC`, 108 to 109 °C.
The same measure for `OC(Cn1ccnc1)c1ccc2ccccc2c1` (configuration not stated): 156 to 160 °C; for `COC(=O)c1c(O)cc(C(F)(F)F)nc1C(F)(F)F`: 62 to 75 °C; for `COC(=O)c1ccc(Cn2nc(OC)c3ccc(N)cc32)c(OC)c1`: 188 to 193 °C.
In the case of `COc1cc(Nc2nccc(-c3ccc(O)cc3)n2)cc(OC)c1OC`, the melting point fell in the range of 200 to 202 °C.
Turning to `CCCN1C(=O)N2CCN=C2c2[nH]c(C3CCCC3)nc21`, the melting point was in the range of 215 to 216 °C.
In the case of `O=C(OCc1ccccc1)OCC1OC(n2cc(F)c(=O)[nH]c2=O)C(O)C1O` (configuration not stated), the melting point is 66 to 68 °C.
To `CSc1ccc(NC(=O)CCCCCSc2nc3ccccc3o2)c(SC)n1` belongs 125 to 126 °C; to `CCOC(=O)C(=NC1CCCCC1)c1cccn1C`, 35 to 36 °C.
On to `Cc1ccccc1C(=O)Nn1cc(-c2ccccc2)nc1S`, for which the melting point fell in the range of 159 to 160 °C.
To `CCC1(SC)CCC2C3CCC4=CC(=O)C=CC4(C)C3(F)C(O)CC21C` (configuration not stated) belongs 252 to 254 °C; to `COc1ccc(-c2cnc(C=NN3CC(=O)NC3=O)o2)cc1`, 291 to 294 °C.
As for `Nc1c(-c2ccccc2O)c2ccccc2[nH]c1=O`, the melting point fell in the range of 235 to 237 °C.
As for `CS(=O)(=O)CC(=O)c1[nH]c2cc(Br)c(Cl)cc2c1-c1ccccc1`, the melting point lay within 224 to 225 °C.
The same measure for `CC(C)NC(=O)OCC(=O)c1ccc(Oc2ccccc2)cc1`: 89 to 90 °C; for `Cc1csc(C)c1NCc1nnc(S)n1C`: 184 to 187 °C.
Consider `Clc1cccc(Nc2ncnc3[nH]c(-c4ccccc4)cc23)c1`, for which the melting point lay in the range of 285 to 286 °C.
To `CC(C)(C)C(NC(=O)c1ccc(Cl)cc1F)NC(=NC#N)Nc1cccnc1` (configuration not stated) belongs 183 to 184 °C; to `Cc1cccc(CC(=O)O)c1OCCCc1cn(-c2ccc(Br)cn2)nc1C(C)(C)C`, 62 to 63 °C.
Regarding `CCC(C)C1Sc2ccccc2NC1=O` (configuration not stated), the melting point fell in the range of 99 to 100 °C.
Consider `CCCNS(=O)(=O)c1cc(C(=O)CCC(=O)O)ccc1Cl`, for which the melting point is 106 °C.
As for `CCS(=O)(=O)N=CNCc1cccc(-c2csc(N=C(N)N)n2)n1`, the melting point was found to be 201 °C.
As to `COCCCOc1cc(C[C@@H](C[C@H](N)[C@@H](O)C[C@H](C(=O)NCC(C)(C)C(N)=O)C(C)C)C(C)C)ccc1OC`, the melting point is 95 to 104 °C.
`CCc1ccccc1-c1nc(-c2cccc(OC)c2)nn1C(=O)Nc1ccc(C)cc1` registered a melting point of 141 to 142 °C.
The same measure for `C=CCn1cc(Cc2ccc(C(=O)O)cc2OC)c2cc(CC(=O)NCCCC)ccc21`: 78 to 80 °C.
`O=[N+]([O-])c1cc2nc(O)c(O)nc2c2ncccc12` had a melting point of over 300 °C.
With `CCOC(=O)C1=C(C)NC(=S)N(C(=O)OCC)C1c1cccc(C)c1` (configuration not stated), the melting point lay in the range of 93 to 95 °C.
The same measure for `CCn1cc(C#Cc2cccc(OC)c2)cc1C(=O)O`: 129 °C; for `O=S(=O)(CCl)Nc1ccnn1-c1c(Cl)cc(C(F)(F)F)cc1Cl`: 63 to 66 °C; for `O=C(O)c1ccc(-c2ccc3cc(OCc4ccccc4)c(C45CC6CC(CC(C6)C4)C5)cc3c2)cc1O`: 263 to 264 °C.
The same measure for `COC(=O)CC(C(=O)c1ccc(SC)cc1)c1ccccc1` (configuration not stated): 82.4 to 83 °C; for `Nc1ncc(S(=O)c2ccc(F)cc2F)s1` (configuration not stated): 171 to 172 °C; for `COc1ccc(NC(=O)Cn2c3c(c4c(Cl)c(Cl)ccc42)CCN(C(=O)OC(C)(C)C)CC3)cc1`: 143 to 144 °C.
To `CC1SC(=O)NN=C1c1ccc2c(c1)C(C)(C)C(=O)N2C(=O)c1ccccc1` (configuration not stated) belongs 200 °C; to `c1ccc(-n2nnc3c4ccccc4c(OCc4ccccn4)nc32)cc1`, 147 to 150 °C; to `O=C1CCCc2c(-c3ccncc3)sc(-c3ccncc3)c21`, 157 to 160 °C.
Consider `NC(=O)C(c1ccccc1Cl)N1CCc2sccc2C1` (configuration not stated), for which the melting point lay within 124 to 126 °C.
To `Cc1cc(C2=NO[C@@](c3cc(Cl)c(F)c(Cl)c3)(C(F)(F)F)C2)ccc1C(=O)NC1CS(=O)(=O)C1` belongs 134 to 136 °C; to `CCc1nc2c(cnn2CC)c(NC2CCOCC2)c1CNC(=O)c1cccc(C(=O)NCc2ccc(Cl)c(-c3cccc(CN4CC5CC4CN5)c3)c2)c1` (configuration not stated), 145 to 149 °C.
Regarding `CC(C)(C)NC(=O)[C@@H]1CCCN1C(=O)[C@@H](O)[C@H](Cc1ccccc1)NC(=O)[C@H](CC(N)=O)NC(=O)COC1CCC(NC(=O)OCc2ccccc2)CC1` (some centres not stated), the melting point lay in the range of 109 to 114 °C.
In turn, `CCNC(=O)c1ccc(N2CCN(Cc3ccc4c(c3)NC(=O)C(C)O4)CC2)cc1` (configuration not stated) returned a melting point of 250 to 256 °C.
To `CC(C)c1ccc(Nc2ccccc2[N+](=O)[O-])c(C#N)c1` belongs 91 to 96 °C; to `CN1C(=O)CCC2(C)c3ccc(-c4ccccc4)cc3CCC12` (single isomer, unassigned; (+)), 155 °C; to `Cc1cc(-c2ccc3c(=O)c(C(=O)O)cn(-c4ccc(F)cc4)c3c2)on1`, 281 to 282 °C.
To `Clc1cc(-c2ccncc2)ccn1` belongs 193 to 196 °C; to `CC1CCN(c2c(-c3ccc(F)cc3Cl)c(C#N)nc3ncnn23)CC1`, 247 °C.
`CCCc1nn(-c2ccc(C(F)(F)F)cn2)cc1CCCO`: the melting point lay within 96 to 97 °C.
To `Cn1nccc1-c1ccc(-c2cnc3[nH]cc(C(=O)C(C)(C)C)c3n2)cc1` belongs 257 to 258 °C; to `CCN(c1ccc(C#N)cc1)S(=O)(=O)c1ccc(C)cc1`, 85.4 to 86.6 °C; to `O=CCc1c(O)c(Br)cc(F)c1F`, 46.5 to 48 °C.
The same measure for `CCCc1c(OCCCCCCc2cccc(CCCCCC(=O)O)c2CCC(=O)O)ccc2c1OCCC2=O`: 109 to 110 °C; for `CCCc1n[nH]c2ccc(C(=O)O)cc12`: 296 to 299 °C.
In the case of `CCN1c2ncccc2C(N2CCCC2)=Nc2c(C)cc(C)nc21`, the melting point was in the range of 138 to 140 °C.
Take `COc1cc(CO)c(OC)c(C)c1C`: the melting point was 71 to 72 °C.
Compound `Nc1cc2c(Nc3ccc(F)c(C(F)(F)F)c3)ncnc2cn1` displayed a melting point of 252 to 255 °C.
Compound `N#Cc1ccc(O[C@@H]2c3cccnc3C[C@H]2N2CCC[C@@H](N)C2)c(Cl)c1` gave a melting point of 172 °C.
In the case of `Cc1noc(NS(=O)(=O)c2ccc(NC(=O)c3ccccc3)cc2-c2ccc(CC(C)C)cc2)c1C`, the melting point fell in the range of 207 to 211 °C.
`NS(=O)(=O)c1cccc2c1CSC2`: the melting point lay within 146 to 148 °C.
To `Nc1ccc(F)cc1-c1nc[nH]n1` belongs 142 to 144 °C; to `CC(C)OP(=O)(OCN1C(=O)c2c(C(C)C)cc(OCC(=O)O)cc2S1(=O)=O)OC(C)C`, 118 to 125 °C.
